Values after ≈ are worked out from the molar mass of the structure shown.
Columns and labels:
E. coli ATCC25922 = assay: MIC, standard microdilution; type: cell-based; conditions: Escherichia coli, read-out: minimum inhibitory concentration (MIC)
Source text: (§1) The antibacterial activities of the compounds have been determined by standard microdilution technique (National Committee for Clinical Laboratory Standards. 1997. Methods for dilution antimicrobial susceptibility tests for bacteria that grow aerobically, 4th edition. Approved standard M7-A4. National Committee for Clinical Laboratory Standards, Wayne, Pa.).

[1] = system: P. aeruginosa ATCC27853 (+Ery. 32 μg/ml); assay: MIC, standard microdilution; type: cell-based
Source text: as §1

St. pneumoniae SL199T = assay: MIC, standard microdilution; type: cell-based, Streptococcus pneumoniae; conditions: Streptococcus pneumoniae, read-out: minimum inhibitory concentration (MIC)
Source text: as §1

St. pneumoniae 1/1 = assay: MIC, standard microdilution; type: cell-based, Streptococcus pneumoniae; conditions: Streptococcus pneumoniae, read-out: minimum inhibitory concentration (MIC)
Source text: as §1

St. pneumoniae 1/4 = assay: MIC, standard microdilution; type: cell-based, Streptococcus pneumoniae; conditions: Streptococcus pneumoniae, read-out: minimum inhibitory concentration (MIC)
Source text: as §1

St. pneumoniae 12288 = assay: MIC, standard microdilution; type: cell-based, Streptococcus pneumoniae; conditions: Streptococcus pneumoniae, read-out: minimum inhibitory concentration (MIC)
Source text: as §1

H. influenzae H28 HEL = assay: MIC, agar dilution, HTM medium; type: cell-based, Haemophilus influenzae; conditions: Haemophilus influenzae, H28HEL, read-out: MIC
Source text: as §1, with “biological” for “antibacterial”, “of compounds of” for “of”, “present invention against Haemophilus influenzae” for “compounds”, “agar dilution method using HTM medium” for “microdilution technique”

H. influenzae 3640 = assay: MIC, agar dilution, HTM medium; type: cell-based, Haemophilus influenzae; conditions: Haemophilus influenzae, read-out: MIC
Source text: as §1, with “biological” for “antibacterial”, “of compounds of” for “of”, “present invention against Haemophilus influenzae” for “compounds”, “agar dilution method using HTM medium” for “microdilution technique”

H. influenzae H36 ODL = assay: MIC, agar dilution, HTM medium; type: cell-based, Haemophilus influenzae; conditions: Haemophilus influenzae, H36ODL, read-out: MIC
Source text: as §1, with “biological” for “antibacterial”, “of compounds of” for “of”, “present invention against Haemophilus influenzae” for “compounds”, “agar dilution method using HTM medium” for “microdilution technique”

H. influenzae H13 LAH = assay: MIC, agar dilution, HTM medium; type: cell-based, Haemophilus influenzae; conditions: Haemophilus influenzae, H13LAH, read-out: MIC
Source text: as §1, with “biological” for “antibacterial”, “of compounds of” for “of”, “present invention against Haemophilus influenzae” for “compounds”, “agar dilution method using HTM medium” for “microdilution technique”

H. influenzae 23145 = assay: MIC, agar dilution, HTM medium; type: cell-based, Haemophilus influenzae; conditions: Haemophilus influenzae, read-out: MIC
Source text: as §1, with “biological” for “antibacterial”, “of compounds of” for “of”, “present invention against Haemophilus influenzae” for “compounds”, “agar dilution method using HTM medium” for “microdilution technique”

H. influenzae 4139 = assay: MIC, agar dilution, HTM medium; type: cell-based, Haemophilus influenzae; conditions: Haemophilus influenzae, read-out: MIC
Source text: as §1, with “biological” for “antibacterial”, “of compounds of” for “of”, “present invention against Haemophilus influenzae” for “compounds”, “agar dilution method using HTM medium” for “microdilution technique”

H. influenzae Rd KW20 = assay: MIC, agar dilution, HTM medium; type: cell-based, Haemophilus influenzae; conditions: Haemophilus influenzae, RDKW20, read-out: MIC
Source text: as §1, with “biological” for “antibacterial”, “of compounds of” for “of”, “present invention against Haemophilus influenzae” for “compounds”, “agar dilution method using HTM medium” for “microdilution technique”

H. influenzae H20 HDL = assay: MIC, agar dilution, HTM medium; type: cell-based, Haemophilus influenzae; conditions: Haemophilus influenzae, H20HDL, read-out: MIC
Source text: as §1, with “biological” for “antibacterial”, “of compounds of” for “of”, “present invention against Haemophilus influenzae” for “compounds”, “agar dilution method using HTM medium” for “microdilution technique”

H. influenzae QK 12/87 = assay: MIC, agar dilution, HTM medium; type: cell-based, Haemophilus influenzae; conditions: Haemophilus influenzae, QK12/87, read-out: MIC
Source text: as §1, with “biological” for “antibacterial”, “of compounds of” for “of”, “present invention against Haemophilus influenzae” for “compounds”, “agar dilution method using HTM medium” for “microdilution technique”

H. influenzae 23369 = assay: MIC, agar dilution, HTM medium; type: cell-based, Haemophilus influenzae; conditions: Haemophilus influenzae, read-out: MIC
Source text: as §1, with “biological” for “antibacterial”, “of compounds of” for “of”, “present invention against Haemophilus influenzae” for “compounds”, “agar dilution method using HTM medium” for “microdilution technique”

H. influenzae ATCC 9334 = assay: MIC, agar dilution, HTM medium; type: cell-based, Haemophilus influenzae; conditions: Haemophilus influenzae, ATCC9334, read-out: MIC
Source text: as §1, with “biological” for “antibacterial”, “of compounds of” for “of”, “present invention against Haemophilus influenzae” for “compounds”, “agar dilution method using HTM medium” for “microdilution technique”

H. influenzae 3457 = assay: MIC, agar dilution, HTM medium; type: cell-based, Haemophilus influenzae; conditions: Haemophilus influenzae, read-out: MIC
Source text: as §1, with “biological” for “antibacterial”, “of compounds of” for “of”, “present invention against Haemophilus influenzae” for “compounds”, “agar dilution method using HTM medium” for “microdilution technique”

H. influenzae 3201 = assay: MIC, agar dilution, HTM medium; type: cell-based, Haemophilus influenzae; conditions: Haemophilus influenzae, read-out: MIC
Source text: as §1, with “biological” for “antibacterial”, “of compounds of” for “of”, “present invention against Haemophilus influenzae” for “compounds”, “agar dilution method using HTM medium” for “microdilution technique”

H. influenzae ATCC 49247 = assay: MIC, agar dilution, HTM medium; type: cell-based, Haemophilus influenzae; conditions: Haemophilus influenzae, ATCC49247, read-out: MIC
Source text: as §1, with “biological” for “antibacterial”, “of compounds of” for “of”, “present invention against Haemophilus influenzae” for “compounds”, “agar dilution method using HTM medium” for “microdilution technique”

H. influenzae QK 50 = assay: MIC, agar dilution, HTM medium; type: cell-based, Haemophilus influenzae; conditions: Haemophilus influenzae, QK50, read-out: MIC
Source text: as §1, with “biological” for “antibacterial”, “of compounds of” for “of”, “present invention against Haemophilus influenzae” for “compounds”, “agar dilution method using HTM medium” for “microdilution technique”

H. influenzae B 1501 = assay: MIC, agar dilution, HTM medium; type: cell-based, Haemophilus influenzae; conditions: Haemophilus influenzae, B1501, read-out: MIC
Source text: as §1, with “biological” for “antibacterial”, “of compounds of” for “of”, “present invention against Haemophilus influenzae” for “compounds”, “agar dilution method using HTM medium” for “microdilution technique”

H. influenzae Christy = assay: MIC, agar dilution, HTM medium; type: cell-based, Haemophilus influenzae; conditions: Haemophilus influenzae, read-out: MIC
Source text: as §1, with “biological” for “antibacterial”, “of compounds of” for “of”, “present invention against Haemophilus influenzae” for “compounds”, “agar dilution method using HTM medium” for “microdilution technique”

H. influenzae 12214 = assay: MIC, agar dilution, HTM medium; type: cell-based, Haemophilus influenzae; conditions: Haemophilus influenzae, read-out: MIC
Source text: as §1, with “biological” for “antibacterial”, “of compounds of” for “of”, “present invention against Haemophilus influenzae” for “compounds”, “agar dilution method using HTM medium” for “microdilution technique”

H. influenzae 11 = assay: MIC, agar dilution, HTM medium; type: cell-based, Haemophilus influenzae; conditions: Haemophilus influenzae, read-out: MIC
Source text: as §1, with “biological” for “antibacterial”, “of compounds of” for “of”, “present invention against Haemophilus influenzae” for “compounds”, “agar dilution method using HTM medium” for “microdilution technique”

H. influenzae 1 = assay: MIC, agar dilution, HTM medium; type: cell-based, Haemophilus influenzae; conditions: Haemophilus influenzae, read-out: MIC
Source text: as §1, with “biological” for “antibacterial”, “of compounds of” for “of”, “present invention against Haemophilus influenzae” for “compounds”, “agar dilution method using HTM medium” for “microdilution technique”

H. influenzae 2947 = assay: MIC, agar dilution, HTM medium; type: cell-based, Haemophilus influenzae; conditions: Haemophilus influenzae, read-out: MIC
Source text: as §1, with “biological” for “antibacterial”, “of compounds of” for “of”, “present invention against Haemophilus influenzae” for “compounds”, “agar dilution method using HTM medium” for “microdilution technique”

S. aureus ATCC29213 = assay: MIC, standard microdilution; type: cell-based, Staphylococcus aureus; conditions: Staphylococcus aureus, read-out: minimum inhibitory concentration (MIC)
Source text: as §1

S. aureus 1086 = assay: MIC, standard microdilution; type: cell-based, Staphylococcus aureus; conditions: Staphylococcus aureus, read-out: minimum inhibitory concentration (MIC)
Source text: as §1

S. aureus 745 = assay: MIC, standard microdilution; type: cell-based, Staphylococcus aureus; conditions: Staphylococcus aureus, read-out: minimum inhibitory concentration (MIC)
Source text: as §1

CC[C@H]1OC(=O)[C@H](C)[C@@H](O[C@H]2C[C@@](C)(OC)[C@@H](O)[C@H](C)O2)[C@H](C)[C@@H](O[C@@H]2O[C@H](C)C[C@H](N(C)C)[C@H]2O)[C@](C)(O)C[C@@H](C)C(=O)[C@H](C)[C@@H](O)[C@]1(C)O [Erythromycin (1), erythromycin A]
MIC (E. coli ATCC25922): > 16 µg/mL
minimum inhibitory concentration (MIC) [1]: >16 µg/mL
MIC (St. pneumoniae SL199T): > 32 µg/mL
MIC (St. pneumoniae 1/1): ≤ 0.12 µg/mL
MIC (St. pneumoniae 1/4): 32 µg/mL (≈ 43.6 µM)
MIC (St. pneumoniae 12288): > 32 µg/mL
MIC (H. influenzae H28 HEL): 2 µg/mL (≈ 2.73 µM)
MIC (H. influenzae 3640): 2 µg/mL (≈ 2.73 µM)
MIC (H. influenzae H36 ODL): 4 µg/mL (≈ 5.45 µM)
MIC (H. influenzae H13 LAH): 4 µg/mL (≈ 5.45 µM)
MIC (H. influenzae 23145): 4 µg/mL (≈ 5.45 µM)
MIC (H. influenzae 4139): 1 µg/mL (≈ 1.36 µM)
MIC (H. influenzae Rd KW20): 4 µg/mL (≈ 5.45 µM)
MIC (H. influenzae H20 HDL): 2 µg/mL (≈ 2.73 µM)
MIC (H. influenzae QK 12/87): 2 µg/mL (≈ 2.73 µM)
MIC (H. influenzae 23369): 4 µg/mL (≈ 5.45 µM)
MIC (H. influenzae ATCC 9334): 4 µg/mL (≈ 5.45 µM)
MIC (H. influenzae 3457): 0.5 µg/mL (≈ 0.681 µM)
MIC (H. influenzae 3201): 4 µg/mL (≈ 5.45 µM)
MIC (H. influenzae ATCC 49247): 4 µg/mL (≈ 5.45 µM)
MIC (H. influenzae QK 50): 4 µg/mL (≈ 5.45 µM)
MIC (H. influenzae B 1501): 4 µg/mL (≈ 5.45 µM)
MIC (H. influenzae Christy): 4 µg/mL (≈ 5.45 µM)
MIC (H. influenzae 12214): 4 µg/mL (≈ 5.45 µM)
MIC (H. influenzae 11): 4 µg/mL (≈ 5.45 µM)
MIC (H. influenzae 1): 4 µg/mL (≈ 5.45 µM)
MIC (H. influenzae 2947): 4 µg/mL (≈ 5.45 µM)
MIC (S. aureus ATCC29213): 0.5 µg/mL (≈ 0.681 µM)
MIC (S. aureus 1086): > 32 µg/mL
MIC (S. aureus 745): > 64 µg/mL

From patent publication US6740642B2, “Macrolides with antibacterial activity” (BAsilea Parmaceutica AG, priority 2000, dated 2004)
